Test results: US5681823A, “P^1, P^4 -dithio-P^2 -P^3 -monochloromethylene 5', 5'"-diadenosine P^1, P^4 -tetraphosphate as antithrombotic agent” (PRP Inc., priority 1996, dated 1997)
“Also recorded” adds a separate entry of the source. Read-outs that look alike come from different tables or passages of the source.

Legend:
platelet cAMP level [1] = experiment: Level of intracellular platelet cAMP (etheno-cAMP, HPLC); type: cell-based, human; settings: forskolin 101 μM as printed, positive control, in words
platelet cAMP level [2] = experiment: as above; type: cell-based, human; settings: 10 μM agent, 37° C., 5 min; control 31.6
Method: (§1) Unless otherwise provided below, the experimental procedures were performed according to the procedures provided in U.S. Pat. No. 5,049.550 (Zamecnik '550), the entire contents of which are incorporated herein by reference. Some alternative procedures (e.g., release reaction, PF3 assays) and a number of additional studies also are provided (e.g., cytoplasmic calcium mobilization, fibrinogen binding site, agonists other than ADP, platelet cAMP and distribution of CHCl-AP4 A into blood components). Blood was collected in a 0.1 volume of 3.8% sodium citrate from healthy human volunteers who had abstained from antiplatelet agents for at least 10 days. Platelet rich plasma (PRP) was separated by a gradual centrifugation and adjusted to 3.3×10^8 platelets per ml plasma. PRP has been utilized in the Examples unless otherwise stated.
The inhibitory effect of cAMP on platelet aggregation has been known as a counteraction of calcium ion mobilization. Accordingly, the inhibitory effects of the agents with respect to a cAMP mediated mechanism was tested. PRP was incubated with saline (control), agents (at 20 μM and 100 μM), or forskolin (10 μM) at 37° C. for 5 min. After incubation, extracts were made using Ba(OH)2 and ZnSO4. Cyclic AMP in the extracts was converted into the etheno-cAMP derivative, and the levels were estimated by HPLC using a fluorescence detector (W. Wojcik et al., J. Cyclic Nucleotide Res. 7:27-35 (1981)). The level of cAMP in an unknown extract was determined by extrapolation from a standard graph. A linear relationship between the cAMP level in the extracted samples and fluorescence detection was observed. […] However, this increase may not be a specific effect. Although adenosine contamination in the tested AP4 A agents was not detected, it is possible that either cellular adenosine nucleotide metabolic products or contaminated adenosine in the tested agents may be responsible for the elevated cAMP level.

[3] = system: ADP-induced platelet aggregation; experiment: ADP-induced platelet aggregation in platelet-rich plasma (turbidimetric method of Born, aggregometer); type: cell-based, human; settings: ADP-induced aggregation, PRP, mean of three (*) or two determinations
Method: as §1
An initial screening was performed for inhibitory effects of several agents (including, e.g., thio-CHCl-AP4 A and CHCl-AP4 A as reference agent)) on platelet aggregation induced by ADP. Platelet aggregation was measured with platelet-rich plasma (PKP) by the turbidimetric method of Born (J. Physiol. 162:67, 1962) in an aggregometer (Chrono-log, Model 530 VS). Platelet aggregation induced by 5 μM ADP in the absence or presence of 5 μM agents was examined. […] The IC50 value of the CHCl-AP4 A (reference agent) was consistent with the value reported previously (P. Zamecnik et al., Proc. Nat'l. Acad. Sci. USA 89:2370-2373 (1992)).

[4] = system: ADP-induced platelet aggregation; settings: Zamecnik '550 Table 3; cited from earlier work
[5] = cited from earlier work
[6] = system: ADP-induced platelet aggregation; settings: cited from earlier work
[7] = in words, cited from earlier work; for side effects / bleeding risk: clinical
[8] = cited from earlier work; remark: listed apart in the source
[9] = system: ADP-induced platelet aggregation; thrombus formation; settings: in words; cited from earlier work
[10] = system: Cytoplasmic Calcium Ion (Ca^++) Mobilization in platelets; experiment: Cytoplasmic calcium ion mobilization in platelets (Indo-1, flow cytometer); type: cell-based, human; settings: unstimulated peak 133
Method: as §1
An increment of cytoplasmic Ca^++ in the platelets represents an activated state. Indo-1 acetomethyl ester (Indo-1) commonly has been utilized as the reagent to detect intracellular free Ca^++. Indo-1 reacts with Ca^++ and produces fluorescence which can be monitored in a dual wavelength (408/485) flow cytometer (Coulter EPIC Systems). Platelets were incubated with Indo-1 at 37° C. for 45 min. Excess Indo-1 in the medium was removed by gel-filtration method. Indo-1-loaded platelets were then activated by 6.7 μM ADP in the absence or presence of thio-CHCl-AP4 A (3.3 μM) or CHCl-AP4 A (6.7 μM). Fluorescence intensity of the platelets was monitored and plotted against platelet number. The histograms generated from the plots were analyzed. Unstimulated platelets registered fluorescence intensity (FI) between 42 and 250 with a peak at 133 (base line control).

Molecule: C=C[C@@]1(C)CC(=O)[C@]2(O)[C@@]3(C)[C@@H](O)CCC(C)(C)[C@@H]3[C@H](O)[C@H](OC(C)=O)[C@@]2(C)O1 [Forskolin]
- effect on platelet cAMP (platelet cAMP level [1]): marked increase
- platelet cAMP level (platelet cAMP level [2]): 124.4 nM

Molecule: Nc1ncnc2c1ncn2[C@H]1C[C@H](O)[C@@H](COP(=O)(O)OP(=O)(O)C(Cl)P(=O)(O)OP(=O)(O)OC[C@H]2O[C@@H](n3cnc4c(N)ncnc43)C[C@@H]2O)O1 (some centres unmarked) [CHCl-dAP4 dA]
- IC50 ([3]; read-out: IC50): > 100 µM

Molecule: Nc1ncnc2c1ncn2[C@H]1C[C@H](O)[C@@H](COP(O)(=S)OP(=O)(O)C(Cl)P(=O)(O)OP(O)(=S)OC[C@H]2O[C@@H](n3cnc4c(N)ncnc43)C[C@@H]2O)O1 (some centres unmarked) [Thio-CHCl-dAP4 dA]
- IC50 [3]: 9.22 µM

Molecule: Nc1ncnc2c1ncn2[C@@H]1O[C@H](COP(=O)(O)OP(=O)(O)C(F)P(=O)(O)OP(=O)(O)OC[C@H]2O[C@@H](n3cnc4c(N)ncnc43)[C@H](O)[C@@H]2O)[C@@H](O)[C@H]1O (some centres unmarked) [AppCHFppA]
- ID10 [4]: 4 µM

Molecule: Nc1ncnc2c1ncn2[C@@H]1O[C@H](COP(=O)(O)OP(=O)(O)OP(=O)(O)OC[C@H]2O[C@@H](n3cnc4c(N)ncnc43)[C@H](O)[C@@H]2O)[C@@H](O)[C@H]1O [AP3 A, diadenosine 5', 5'"-p^1, p^3 -triphosphate]
- degradation products in plasma [5]: hydrolyzed in plasma to AMP (adenosine monophosphate) and ADP (adenosine diphosphate)
- effect on platelet aggregation ([6]; AP3 A, in words): gradual aggregation of platelets

Molecule: Clc1ccccc1CN1CCc2sccc2C1 [ticlopidine]
- side effects / bleeding risk [7]: substantial side effects

Molecule: ReoPro: newer drugs, such as ReoPro (7E3)
- side effects / bleeding risk [7]: increased risk of major bleeding

Molecule: CC(=O)Oc1ccccc1C(=O)O [aspirin]
- clinical effectiveness [7]: useful but limited effectiveness

Molecule: Nc1ncnc2c1ncn2[C@@H]1O[C@H](COP(=O)(O)OP(=O)(O)OP(=O)(O)OP(=O)(O)OC[C@H]2O[C@@H](n3cnc4c(N)ncnc43)[C@H](O)[C@@H]2O)[C@@H](O)[C@H]1O [AP4 A, diadenosine 5', 5'"-P^1,P^4 -tetraphosphate]
- half-life in rabbit blood ([8]; in vivo and ex vivo): short half-life
- ex vivo decay compared to in vivo clearance ([8]; rabbit blood): significantly longer
- effect on ADP-induced platelet aggregation on administration to a mammal [9]: inhibit markedly ADP-induced platelet aggregation
- effect on thrombus formation on administration to a mammal [9]: inhibit thrombus formation
- AP4 A degraded in plasma ([5]; ^32 P-labeled, normal plasma, ten minutes, 37° C., 10 min): 90%
- degradation products in plasma [5]: degraded to AMP and ATP (adenosine triphosphate)
- dispersion of aggregated platelets ([6]; even when aggregation has progressed to 60% completion): immediate dispersion of aggregated platelets
- effect on ADP-induced platelet aggregation ([6]; in vitro, in words): competitive inhibitor; also recorded: competitively inhibits

Molecule: CNc1ccc2oc(C[C@H]3O[C@@]4(CC[C@H]3C)O[C@H]([C@H](C)C(=O)c3ccc[nH]3)[C@H](C)C[C@H]4C)nc2c1C(=O)O [A23187]
- fluorescence intensity (FI), peak ([10]; 2 μM A23187, positive control): 530

Molecule: Nc1ncnc2c1ncn2[C@@H]1O[C@H](COP(=O)(O)OP(=O)(O)O)[C@@H](O)[C@H]1O [ADP, adenosine diphosphate]
- fluorescence intensity (FI), peak ([10]; 6.7 μM ADP, no agent): 158
